PubChem BioAssay (NCI)
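Where inhibition never reached the appropriate level, the endpoint shown equals the highest concentration tested. Otherwise, values were interpolated linearly from a five-concentration, 48-hour dose response in 96-well plates. GI50: concentration for 50% inhibition of growth. The concentration for full growth arrest is given as TGI.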

Tests used:
Experiment in all cases: NCI anticancer screen, dose series, 48 h
[1] = test system: RPMI-8226 leukemia
[2] = test system: MCF7 breast
[3] = test system: HS 578T breast
[4] = test system: SNB-19 CNS
[5] = test system: UACC-62 melanoma
[6] = test system: MDA-MB-231 breast
[7] = test system: A498 renal
[8] = test system: HT29 colon

| Compound | GI50 [1] | TGI [1] | GI50 [2] | TGI [2] | GI50 [3] | TGI [3] | GI50 [4] | TGI [4] | GI50 [5] | TGI [5] | GI50 [6] | TGI [6] | GI50 [7] | TGI [7] | GI50 [8] | TGI [8] |
| --- | --- | --- | --- | --- | --- | --- | --- | --- | --- | --- | --- | --- | --- | --- | --- | --- |
| COC(=O)c1cc(-c2ccc(OC)c(OC)c2)[nH]c1N/N=C/c1c(Cl)cccc1Cl | 0.531 µM | > 100 µM | 0.301 µM | 1.44 µM | 0.523 µM | 11 µM | 0.673 µM | 6.98 µM | 0.552 µM | 11.2 µM | 1.31 µM | 5.03 µM | 0.532 µM | 3.8 µM | 0.434 µM | 2.3 µM |
| COc1cc(C(=O)Nc2cc(O)c(CC=C(C)C)c(O)c2)cc2c1O[C@]1(C)CC[C@@H](O)C(C)(C)[C@H]1C2 | 0.0959 µM | 0.816 µM | 0.256 µM | 15.4 µM | 0.0471 µM | 14 µM | 4.64 µM | 61.6 µM | 0.187 µM | 1.57 µM | 1.16 µM | 4.53 µM | 0.147 µM | 15.7 µM | 1.9 µM | 12.3 µM |
| C=CCc1cc(Nc2c3ccc(Cl)cc3nc3ccc(OC)cc23)cc(CN(CC)CC)c1O | 0.348 µM | 2.38 µM | 2.1 µM | 7.94 µM | 3.04 µM | 14.3 µM | 2.03 µM | 21.2 µM | 1.75 µM | 4.4 µM | 2.35 µM | 10.8 µM | 1.68 µM | 5.84 µM | 1.75 µM | 10.1 µM |
| N/C(=N\OC(=O)c1ccccc1)C(Cc1ccccc1)C(=O)NOC(=O)c1ccccc1 (centres undefined) | 1.74 µM | 4.95 µM | 2.78 µM | 10.3 µM | 0.952 µM | 3.27 µM | 3.55 µM | 15.6 µM | 2.49 µM | 7.53 µM | 4.6 µM | 18.1 µM | 11 µM | 23.2 µM | 5.24 µM | 18.5 µM |
| CN1CCc2nc3sc(C(N)=O)c(N)c3c(-c3cccs3)c2C1 | 4.41 µM | > 100 µM | 4.1 µM | > 100 µM | 3.07 µM | 21.7 µM | 4.34 µM | > 100 µM | 2.38 µM | 6.56 µM | 4.77 µM | > 100 µM | 2.58 µM | 7.27 µM | 3.11 µM | 70.9 µM |
| N#CCCNc1nonc1-c1nc2ccccc2n1CC(=O)c1ccc(NC(=O)[C@@H](N)CCCCN)cc1 | 0.0434 µM | > 100 µM | 0.0302 µM | > 100 µM | 0.908 µM | > 100 µM | > 100 µM | > 100 µM | 0.0213 µM | > 100 µM | 0.0599 µM | > 100 µM | 0.0154 µM | 1.89 µM | 0.0326 µM | > 33.3 µM |
| C/C(=N\O)c1cccc(Nc2cc(-n3ccnc3)c3ccccc3n2)c1 | 21.2 µM | > 100 µM | > 100 µM | > 100 µM | 17.2 µM | 60.9 µM | 17.5 µM | 43.6 µM | 6.63 µM | 19.5 µM | 6.26 µM | 24 µM | 21.6 µM | 39.1 µM | 14.7 µM | 49.4 µM |
| Cc1cc(C)c(C2CNCc3cc4c(cc32)CNCC4c2c(C)cc(C)cc2C)c(C)c1 (centres undefined) | 2.25 µg/mL | 6.92 µg/mL | 5.42 µg/mL | 20.1 µg/mL | 3.43 µg/mL | 13.5 µg/mL | 3.46 µg/mL | 11 µg/mL | 6.7 µg/mL | 15.4 µg/mL | 2.42 µg/mL | 11.4 µg/mL | 2.06 µg/mL | 4.48 µg/mL | 2.75 µg/mL | 8.35 µg/mL |
| Cn1ccnc1Oc1ccc(Cl)cc1 | – | 2.85 µM | – | 38.3 µM | – | 66.1 µM | – | > 100 µM | – | 23.5 µM | – | 37.4 µM | – | 46.4 µM | – | 26.6 µM |
| COc1ccc2c(c1)C(=O)c1c-2c(OCCN(C)C)nc2ccccc12 | 2.85 µM | 13.9 µM | 1.76 µM | 10.9 µM | 3.57 µM | 12.2 µM | 2.68 µM | 12.4 µM | 3.9 µM | 15.7 µM | 4.02 µM | 20.8 µM | 1.87 µM | 10.7 µM | 1.46 µM | 5.01 µM |
| Oc1c(-c2cc(C(F)(F)F)[nH]n2)cc(Cl)c(OCc2ccc(Cl)cc2)c1-c1ccc(Cl)c(C(F)(F)F)c1 | 0.204 µM | 1.19 µM | 0.228 µM | 5.39 µM | 0.344 µM | 2.85 µM | 0.565 µM | 6.62 µM | 0.355 µM | 1.42 µM | 0.46 µM | 3.07 µM | 0.0996 µM | 0.484 µM | 1.4 µM | 5.83 µM |
| COc1ccc(Nc2ccnc(N3CCN(c4ccnc5cc(Cl)ccc45)CC3)n2)cc1 | 1.04 µM | 3.88 µM | 1.01 µM | 7.32 µM | 1.4 µM | 9.06 µM | 1.48 µM | > 100 µM | 0.292 µM | 1.43 µM | 1.51 µM | > 29.8 µM | 0.342 µM | 4.17 µM | 0.542 µM | 4.92 µM |
| Cc1[nH]nc(-c2ccon2)c1N=O | – | 17.1 µM | – | 63.2 µM | – | 80.7 µM | – | 64.8 µM | – | 34.7 µM | – | 32.4 µM | – | > 100 µM | – | 39.6 µM |
| CC(C)C[C@H](NC(=O)CCn1ccc2ccccc2c1=O)B(O)O | 1.06 µM | 7.07 µM | 4.35 µM | > 100 µM | 3.63 µM | 48.7 µM | 8.02 µM | > 100 µM | 4.29 µM | 24.9 µM | 9.45 µM | 59.3 µM | 1.22 µM | 4.79 µM | 3.68 µM | 48.7 µM |
| COc1cc(/C=C/c2ccc3c(Br)cc(Br)c(O)c3n2)ccc1O | 1.21 µM | 8.07 µM | 1.53 µM | 12.5 µM | 2.01 µM | 14.6 µM | 2.67 µM | 15.2 µM | 1.67 µM | 5.3 µM | 7.39 µM | 22 µM | 9.43 µM | 21.8 µM | 3.86 µM | 12.8 µM |
